Laboratory results published in patent US10632121B2, “Platelet-derived growth factor receptor mutations and compositions and methods relating thereto” (MEMORIAL SLOAN KETTERING CANCER CENTER, priority 2014, dated 2020).
Where “and” joins values, the source holds several entries; their conditions need not be identical. Equal entries are not always repeated. Entries after “also recorded” stand apart in the source; their conditions may differ. Where two headings read alike, the source gives them in different places.

Tests used:
TS543 GBM cells = test: Western blot of pathway signaling, TS543; format: cell-based, human; details: TS543, four hour treatment
Method: Cell lysates for western blots were harvested in cell lysis buffer (Cell Signaling 9803) supplemented with a protease inhibitor cocktail (Calbiochem cocktail II 524625) and phosphatase inhibitor cocktail (Calbiochem cocktail III 524627). Lysates were sonicated, centrifuged, then quantified (Bio-Rad DC Protein Assay 500-0113, 500-0114, and 500-0115). Samples were normalized to one another, then a reducing loading buffer was added. Samples were run on SDS-PAGE gels and semi-dry transferred to nitrocellulose membranes.
(§1) SAR408 and SAR409 were provided by Sanofi. […] Antibodies for western blots were from Cell Signaling Technology with the following exceptions: actin (Sigma), total PDGFRA (Santa Cruz), and V5 epitope (Invitrogen). Western Blots were performed after four hours of drug treatment unless indicated otherwise. Electroluminescence was used to quantify phosphorylation of Akt and S6 ribosomal protein (FIG. 1B) (Meso Scale Discovery cat # K15100D-1 and cat # K150DGD-1). Cell Proliferation and Viability Assays were performed using a Beckman Coulter Vi-Cell XR Cell Viability Analyzer after five days of drug treatment unless indicated otherwise.

G228V-PDGFRA = test: Akt activation by PDGFRA expressed in Pdgfra/Pdgfrb double knockout MEFs (Western blot); format: cell-based, mouse; details: SAR409 1 μM, one hour pretreatment
S5472 cells = test: S5472 subcutaneous tumor model in SCID mice, tumor growth; format: in vivo, mouse
Method: (§2) The in vivo effects of SAR245409 treatment were examined on the S5472 PDGF-β driven line. One million S5472 cells were injected subcutaneously into SCID mice flanks. After measurable tumor formation, mice were randomized into vehicle, 60 mg/kg/day, or 120 mg/kg/every other day treatment groups, ten mice per group. […] Tumors were removed from one hour after the last dose of treatment for analysis. Sections were IHC stained for biomarkers of pathway inhibition pAkt Ser473 and pS6 Ser235/6. […] Portions of the tumor were lysed and pAkt Ser473 and pS6 Ser240/4 were measured using an electrochemiluminescent assay on the Meso Scale system (FIG. 19B).
(§3) For the S5472 and TS543 subcutaneous model, 10e6 cells were suspended in a 100 uL mixture of 50% growth media 50% Matrigel (BD 356237). SCID mice were injected subcutaneously in the flank, and once tumors had reached a measurable size, mice were randomized into treatment groups.

PI3Kδ = PI3Kδ (Homo sapiens, UniProt O00329); details: cited from earlier work
[1] = tested on: EGFR mutant GBM cells (SF-268, KNS-81-FD); test: Cell viability, EGFR mutant GBM cells; format: cell-based, human; details: SF-268 (EGFR A289V), KNS-81-FD (EGFR G598V), five day treatment
Method: (§4) Growth assays performed on adherent cell lines were trypsanized, counted, and plated into 6 cm dishes. The next day media was removed, and replaced with reduced serum media (5% FBS) with drug or vehicle in triplicate for each concentration. After five days in culture, cells were analyzed in the same manner as non-adherent lines.
as §1

[2] = Clinical trial: safety, adverse events (CTCAE v4.0)
TS603 GBM tumor spheres = test: Electrochemiluminescent detection of pAkt and pS6RP in GBM tumor spheres; format: cell-based, human; details: at the median intratumoral Cmax concentration (0.17 μM), four hours treatment
[3] = tested on: PI3K/mTOR pathway (pAkt Ser473, pS6); test: S5472 subcutaneous tumors, pAkt and pS6 (IHC, Meso Scale); format: in vivo, mouse
Method: as §2
pS6RP Ser240/4 (K150DFD-1) and pAkt Ser473/total Akt (K15100D-1) assays were purchased from MescoScale Discovery and performed as described by the kit on fresh cell lysates, or on lysed frozen tumor sections. Assays were read on the SECTOR™ SI2400 imager.

PDGF-B-induced gliomas = details: 60 mg/kg/day, ten days, p=0.006 vs vehicle
[4] = tested on: H1703 human non-small cell lung cancer cells (PDGFRA amplified); test: Cell proliferation and viability (Vi-Cell, trypan blue), H1703; format: cell-based; details: H1703, five day treatment
Method: as §4, §1

PI3Kα = PI3Kα (Homo sapiens, UniProt P42336); details: cited from earlier work
TS543 cells = test: TS543 subcutaneous tumor model in SCID mice; format: in vivo, mouse; details: 60 mg/kg/day, p=0.0139 vs vehicle
Method: To confirm the in vitro observations described above in vivo, one million TS543 cells were injected into the flank of a severe combined immune deficiency (SCID) mouse. Once tumors had formed, the mice were randomized into vehicle or 60 mg/kg/day SAR245409 treatment arms. Tumors were measured every three days. […] This reduction was statistically significant (unpaired t test with Welch's correction, p=0.0139).
as §3

[5] = SAR409 50 mg twice daily (N = 8)
[6] = SAR409 90 mg once daily (N = 7)

Chain of PI3Kα (P42336 whole entry): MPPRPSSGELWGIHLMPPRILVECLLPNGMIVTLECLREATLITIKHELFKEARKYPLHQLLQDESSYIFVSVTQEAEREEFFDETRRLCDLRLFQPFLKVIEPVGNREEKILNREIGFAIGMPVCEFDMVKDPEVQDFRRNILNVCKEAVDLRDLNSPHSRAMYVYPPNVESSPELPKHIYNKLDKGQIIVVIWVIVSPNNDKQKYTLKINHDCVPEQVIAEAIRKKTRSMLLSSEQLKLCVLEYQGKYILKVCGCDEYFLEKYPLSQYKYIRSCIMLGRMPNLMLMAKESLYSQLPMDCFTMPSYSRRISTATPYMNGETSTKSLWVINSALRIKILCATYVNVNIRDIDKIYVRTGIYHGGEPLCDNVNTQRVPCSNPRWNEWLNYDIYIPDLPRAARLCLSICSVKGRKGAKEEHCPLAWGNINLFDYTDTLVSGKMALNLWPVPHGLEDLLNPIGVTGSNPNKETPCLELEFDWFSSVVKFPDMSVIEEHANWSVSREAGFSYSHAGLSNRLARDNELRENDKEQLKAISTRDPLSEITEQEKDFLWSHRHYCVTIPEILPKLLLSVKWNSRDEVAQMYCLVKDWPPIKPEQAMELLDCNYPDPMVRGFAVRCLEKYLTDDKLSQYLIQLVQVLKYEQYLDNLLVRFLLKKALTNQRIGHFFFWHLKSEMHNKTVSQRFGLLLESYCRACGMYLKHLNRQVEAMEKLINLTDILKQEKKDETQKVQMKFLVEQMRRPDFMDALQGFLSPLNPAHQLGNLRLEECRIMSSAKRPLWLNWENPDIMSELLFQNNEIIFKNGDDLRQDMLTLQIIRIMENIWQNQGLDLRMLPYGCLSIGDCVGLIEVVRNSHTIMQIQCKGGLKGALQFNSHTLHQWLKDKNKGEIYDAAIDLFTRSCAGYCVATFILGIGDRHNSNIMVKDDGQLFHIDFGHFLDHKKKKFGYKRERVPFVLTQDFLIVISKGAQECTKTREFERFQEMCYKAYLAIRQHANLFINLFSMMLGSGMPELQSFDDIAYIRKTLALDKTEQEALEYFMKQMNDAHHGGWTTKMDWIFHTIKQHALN
Chain of PI3Kα (P27986 whole entry partner): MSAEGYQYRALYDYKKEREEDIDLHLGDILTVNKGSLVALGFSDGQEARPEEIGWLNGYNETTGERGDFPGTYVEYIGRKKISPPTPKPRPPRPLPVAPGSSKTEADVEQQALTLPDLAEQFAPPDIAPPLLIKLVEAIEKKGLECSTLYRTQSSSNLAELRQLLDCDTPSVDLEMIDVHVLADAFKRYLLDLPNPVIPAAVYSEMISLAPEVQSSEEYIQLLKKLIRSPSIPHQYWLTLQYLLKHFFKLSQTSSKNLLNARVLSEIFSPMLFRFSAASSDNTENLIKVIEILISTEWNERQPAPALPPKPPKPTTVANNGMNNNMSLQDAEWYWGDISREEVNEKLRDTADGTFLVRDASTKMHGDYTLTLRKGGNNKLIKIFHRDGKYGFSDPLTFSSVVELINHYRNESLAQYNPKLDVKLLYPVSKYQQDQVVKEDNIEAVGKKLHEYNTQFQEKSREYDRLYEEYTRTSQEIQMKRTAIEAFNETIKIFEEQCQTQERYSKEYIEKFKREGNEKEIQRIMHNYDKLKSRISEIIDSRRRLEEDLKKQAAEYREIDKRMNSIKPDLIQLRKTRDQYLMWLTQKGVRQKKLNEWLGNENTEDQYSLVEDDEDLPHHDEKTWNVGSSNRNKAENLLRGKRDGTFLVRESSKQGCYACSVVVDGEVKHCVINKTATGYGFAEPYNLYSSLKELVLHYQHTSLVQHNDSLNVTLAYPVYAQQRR
Chain of PI3Kδ (O00329 whole entry): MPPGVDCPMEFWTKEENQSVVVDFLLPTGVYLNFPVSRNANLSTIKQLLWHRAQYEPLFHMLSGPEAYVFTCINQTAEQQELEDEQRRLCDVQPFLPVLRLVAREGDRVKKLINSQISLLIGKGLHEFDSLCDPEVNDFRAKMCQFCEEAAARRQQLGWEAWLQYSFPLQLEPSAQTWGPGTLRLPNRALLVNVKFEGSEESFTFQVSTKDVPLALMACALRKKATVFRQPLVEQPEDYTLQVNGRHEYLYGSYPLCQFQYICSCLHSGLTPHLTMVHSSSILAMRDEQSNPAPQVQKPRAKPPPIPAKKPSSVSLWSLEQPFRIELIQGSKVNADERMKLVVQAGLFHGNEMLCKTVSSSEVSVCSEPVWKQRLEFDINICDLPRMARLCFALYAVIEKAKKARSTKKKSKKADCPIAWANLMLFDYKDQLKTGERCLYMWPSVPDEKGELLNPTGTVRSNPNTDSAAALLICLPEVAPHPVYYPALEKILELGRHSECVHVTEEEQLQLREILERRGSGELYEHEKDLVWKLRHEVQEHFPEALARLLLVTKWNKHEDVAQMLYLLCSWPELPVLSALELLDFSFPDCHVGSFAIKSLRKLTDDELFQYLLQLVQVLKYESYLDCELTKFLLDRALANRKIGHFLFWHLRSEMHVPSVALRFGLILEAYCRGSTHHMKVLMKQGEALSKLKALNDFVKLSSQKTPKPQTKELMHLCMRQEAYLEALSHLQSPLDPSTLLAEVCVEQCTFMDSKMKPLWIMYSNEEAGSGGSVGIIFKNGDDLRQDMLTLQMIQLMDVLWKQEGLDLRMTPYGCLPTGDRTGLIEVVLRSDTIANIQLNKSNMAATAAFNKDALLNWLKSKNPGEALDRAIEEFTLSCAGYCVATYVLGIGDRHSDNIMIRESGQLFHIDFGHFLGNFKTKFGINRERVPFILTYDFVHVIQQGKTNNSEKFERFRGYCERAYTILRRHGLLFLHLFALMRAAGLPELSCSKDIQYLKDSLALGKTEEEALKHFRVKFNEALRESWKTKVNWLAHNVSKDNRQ
Chain of PI3Kδ (P27986 whole entry partner): as the sequence (P27986 whole entry partner) above

SMILES: CCn1c(=O)c(-c2cc[nH]n2)cc2c(C)nc(N)nc21 [SAR409, voxtalisib]
- PI3K/mTOR pathway inhibition (Western blot) (TS543 GBM cells): inhibited the PI3K/mTOR pathway almost completely
- Akt activation by G228V-PDGFRA (Western blot) (G228V-PDGFRA): could be inhibited; also recorded: blocks ligand induced AKT activation
- tumor growth (tumor volume) (S5472 cells; 60 mg/kg/day): markedly reduced tumor growth
- tumor growth (tumor volume) (S5472 cells; 120 mg/kg/every other day): markedly reduced tumor growth
- IC50 (PI3Kδ): 91 nM
- cell death (% Trypan blue positive cells) [1]: failed to induce cell death
- cell death (% Trypan blue positive cells) ([1]; listed as SAR245409): robust induction of cell death was only detected in the BT474 line
- Patients with any Grade 3/4 TEAE [2, 5]: 7 n (%) and 7 (87.5) n (%)
- Patients with any Grade 3/4 treatment-emergent SAE [2, 5]: 5 (62.5) n (%)
- Patients with any TEAE [2, 5]: 8 (100.0) n (%)
- Patients with any TEAE leading to dose reduction or interruption [2, 5]: 6 (75.0) n (%)
- Patients with any TEAE leading to permanent treatment discontinuation [2, 5]: 3 (37.5) n (%)
- Patients with any related Grade 3/4 TEAE [2, 5]: 4 (50.0) n (%)
- Patients with any related Grade 3/4 treatment-emergent SAE [2, 5]: 1 (12.5) n (%)
- Patients with any related TEAE [2, 5]: 8 n (%) and 8 (100) n (%)
- Patients with any related treatment-emergent SAE [2, 5]: 1 n (%) and 1 (12.5) n (%)
- Patients with any treatment emergent SAE [2, 5]: 5 n (%) and 5 (62.5) n (%)
- Patients with any Grade 3/4 TEAE [2, 6]: 4 n (%) and 4 (57.1) n (%)
- Patients with any Grade 3/4 treatment-emergent SAE [2, 6]: 1 (14.3) n (%)
- Patients with any TEAE [2, 6]: 7 (100.0) n (%)
- Patients with any TEAE leading to death [2, 6]: 0 n (%)
- Patients with any TEAE leading to dose reduction or interruption [2, 6]: 2 (28.6) n (%)
- Patients with any TEAE leading to permanent treatment discontinuation [2, 6]: 2 (28.6) n (%)
- Patients with any related Grade 3/4 TEAE [2, 6]: 4 (57.1) n (%)
- Patients with any related Grade 3/4 treatment-emergent SAE [2, 6]: 1 (14.3) n (%)
- Patients with any related TEAE [2, 6]: 7 n (%) and 7 (100.0) n (%)
- Patients with any related treatment-emergent SAE [2, 6]: 1 n (%) and 1 (14.3) n (%)
- Patients with any treatment emergent SAE [2, 6]: 1 n (%) and 1 (14.3) n (%)
- liver toxicity ([2]; SAR409 cohorts): some evidence for liver toxicity
- ALT increased leading to discontinuation from study drug ([2]; SAR409 once daily cohort): 1 patient
- ALT increased leading to dose delays ([2]; SAR409 once daily cohort): 1 patient
- study drug-related TEAE: ALT increased ([2]; SAR409 once daily cohort): 2 patients
- study drug-related TEAE: ALT increased, Grade 3 or Grade 4 ([2]; SAR409 once daily cohort): 1
- study drug-related TEAE: AST increased ([2]; SAR409 once daily cohort): 1 patient
- study drug-related TEAE: Gamma-glutamyltransferase increased ([2]; SAR409 once daily cohort): 1 patient
- ALT increased leading to discontinuation from study drug ([2]; SAR409 twice daily cohort): 1 patient
- ALT increased leading to dose delays ([2]; SAR409 twice daily cohort): 2 patients
- ALT increased leading to dose reductions ([2]; SAR409 twice daily cohort): 3 patients
- study drug-related TEAE: ALT increased ([2]; SAR409 twice daily cohort): 4 patients
- study drug-related TEAE: ALT increased, Grade 3 or 4 ([2]; SAR409 twice daily cohort): 2 patients
- study drug-related TEAE: AST increased ([2]; SAR409 twice daily cohort): 1 patient
- study drug-related TEAE: Blood bilirubin increased ([2]; SAR409 twice daily cohort): 1 patient
- drug-related TEAE: fatigue ([2]; all cohorts of the drug pooled): 9 patients
- drug-related TEAE: ALT increased ([2]; both SAR409 cohorts pooled): 6 patients
- drug-related TEAE: diarrhea ([2]; both SAR409 cohorts pooled): 2 patients
- drug-related TEAE: dysgeusia ([2]; both SAR409 cohorts pooled): 2 patients
- drug-related TEAE: hypophosphatemia ([2]; both SAR409 cohorts pooled): 3 patients
- drug-related TEAE: lipase increased ([2]; both SAR409 cohorts pooled): 3 patients
- drug-related TEAE: nausea ([2]; both SAR409 cohorts pooled): 4 patients
- patients with drug-related TEAEs ([2]; both SAR409 cohorts pooled): 15 patients
- tolerability of postoperative treatment ([2]; seventeen patients who resumed drug postoperatively): tolerated it well
- reduction of phosphorylation of Akt and S6 Ribosomal Protein (TS603 GBM tumor spheres): about 50%
- pAkt Ser473 and pS6 Ser240/4 in tumor lysates (electrochemiluminescent assay) ([3]; 60 mg/kg/day arm, p=0.0001 vs vehicle): significantly down
- pAkt Ser473 and pS6 Ser235/6 in tumor sections (IHC) ([3]; one hour after last dose, treated vs vehicle): Notable inhibition of both markers
- fold change in tumor size (MRI) between start and end of treatment (PDGF-B-induced gliomas): grew markedly slower
- fold change in tumor size (MRI) between start and end of treatment (PDGF-B-induced gliomas; listed as SAR245409): statistically significantly smaller
- cell death (% Trypan blue positive cells) [4]: induction of cell death
- proliferation / growth inhibition [4]: potent growth inhibition
- IC50 (PI3Kα): 101 nM
- tumor growth (tumor volume) (TS543 cells): marked reduction in tumor growth
